Patent US10211534B2, “Sildenafil solutions and methods of making and using same” (priority 2014, dated 2019)
Counter-ions that a name gives are not always drawn. Like-named read-outs stand apart in the source and are kept apart here.

What was measured:
[1] = tablets or oral suspension; cited from earlier work
[2] = cited from earlier work
[3] = solubility of sildenafil citrate in EtOH/water mixtures with and without acetone (Example 1); assay type: physicochemical; settings: Table 1; sildenafil citrate remaining in solution after heating
[4] = spectrophotometric analysis at 228 nm before and after filtration via a 0.22 micron filter (Example 12); assay type: physicochemical; settings: at 18 mg/ml in 70% ethanol
Procedure: A UV-VIS Genesys 10S Thermo Scientific spectrophotometer was used for the assay. Samples were placed in a UV Kurette Halbmicro/UV Cuvette semi micro [Cat no: 759150] for reading.
Because the reference describes measurements at μg/ml concentrations, both the filtered and unfiltered 18 mg/ml solutions were diluted to 9 μg/ml and 12.5 μg/ml and measured again.

[5] = EMEA CHMP Assessment Report For Vizarsin
[6] = Jordanian Pharmaceutical Manufacturing Co.

Final conc. (After heating) [3]: ≤ 35.7 mg/mL
solubility as prepared in Example 1 [4]: fully soluble
SMILES: CCCc1nn(C)c2c(=O)[nH]c(-c3cc(S(=O)(=O)N4CCN(C)CC4)ccc3OCC)nc12 [sildenafil citrate]
absolute bioavailability [1]: about 41%
solubility in acetone [2, 5]: insoluble
solubility in chloroform [2, 5]: insoluble
solubility in dimethylsulfoxide (DMSO) [2, 5]: soluble
solubility in ethanol [2, 5]: insoluble
solubility in methanol [2, 5]: soluble
solubility in ethanol [2, 6]: ~1000 µg/mL
times less soluble in ethanol than in water [2, 6]: about 3.5 times
